We go through ten compounds from ChEMBL document CHEMBL1201862, “PubChem BioAssay data set” (2004).

The structures appear in SMILES notation.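 Growth conditions: 96-well plates. Treatment: test compound, 48 hours, 5 concentrations. Analysis: linear interpolation between bracketing concentrations; unreached endpoints set to highest concentration. GI50 marks 50% less growth.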 Calls of active or inactive are those of the source. Rule as the data show it: active = GI50 up to about 1.1 µM and inactive = higher. Residues, ends and D or L forms follow the SMILES beside them. *: point of attachment. X38 = O=C(c1ccc(-c2ccc(Cl)cc2Cl)o1)*

Among the test systems are SK-OV-3; NCI/ADR-RES; UO-31; HL-60; OVCAR-4; SF-539; M14; A549; EKVX; SF-268; MOLT-4; CAKI-1; OVCAR-8; MCF7; HT-29; SW-620; SK-MEL-2; HOP-92; A498.
Common to all, as to test: NCI anticancer screen, dose series, 48 h

For the compound `CCOC(=O)c1ccc(-c2cccs2)n1C`, the GI50 with SK-OV-3 was > 87.3 µM (inactive); in the assay with NCI/ADR-RES, > 87.5 µM (inactive); in the assay with UO-31 it was 43.7 µM (inactive); in the assay with HL-60, > 69.5 µM (inactive); in the assay with OVCAR-4 it was 79.8 µM (inactive); with SF-539 it was > 100 µM (inactive). Further, the GI50 with M14 was > 100 µM (inactive); in the assay on A549, > 100 µM (inactive); with EKVX, 48.5 µM (inactive); with SF-268, > 100 µM (inactive); in the assay with MOLT-4, 39.4 µM (inactive); in the assay on CAKI-1, > 100 µM (inactive). In addition, the GI50 with OVCAR-8 is > 100 µM (inactive); in the assay with MCF7 it was > 96.4 µM (inactive); in the assay on HT-29, 47.2 µM (inactive); in the assay on SW-620 it was > 80.7 µM (inactive); with SK-MEL-2, > 100 µM (inactive); with HOP-92 it was > 43.1 µM (inactive). Also, the GI50 with A498 is > 100 µM (inactive).
For `CC(=O)N(C)C(C(=O)N1CC(C)CC1C(=O)N(C)C1C(=O)NC(CC(C)C)C(=O)N2CC(C)CC2C(=O)NC(CC(C)C)C(=O)N(C)C(C(C)C)C(=O)N2CCCC2C(=O)N(C)C(CC(C)C)C(=O)NCC(=O)OC1C)C(C)C` (centres undefined), the GI50 with SK-OV-3, in the assay on NCI/ADR-RES, with UO-31, in the assay on HL-60, with OVCAR-4 and with SF-539 was > 100 µM (inactive) each time. The GI50 in the assay with M14, in the assay with A549, with EKVX, with SF-268, in the assay with MOLT-4 and with CAKI-1 was > 100 µM (inactive) throughout. Further, the GI50 in the assay with OVCAR-8, with MCF7, in the assay on HT-29, in the assay on SW-620, in the assay on SK-MEL-2 and with HOP-92 was > 100 µM (inactive) throughout. For the same compound, in the assay on A498, the GI50 is > 100 µM (inactive).
With `COc1ccc(NC=O)c(C(=O)CCNC(C)=O)c1`, the GI50 in the assay with SK-OV-3, in the assay on NCI/ADR-RES, in the assay with UO-31, in the assay on HL-60, with OVCAR-4 and in the assay on SF-539 was > 100 µM (inactive) throughout. Also, the GI50 in the assay on M14, in the assay with A549, in the assay with EKVX, in the assay with SF-268, in the assay with MOLT-4 and in the assay on CAKI-1 was > 100 µM (inactive) throughout. Moreover, the GI50 with OVCAR-8, in the assay on MCF7, with HT-29, with SW-620, in the assay with SK-MEL-2 and in the assay with HOP-92 was > 100 µM (inactive) in each case. Moreover, in the assay with A498, the GI50 is > 100 µM (inactive).
With `C=C1C(=O)O[C@H]2C1C[C@@H](O)/C(C)=C/CC[C@@]1(C)O[C@H]21` (some centres undefined), the GI50 is 49.7 µM (inactive) with SK-OV-3; 30.5 µM (inactive) in the assay on NCI/ADR-RES; 18.7 µM (inactive) in the assay on UO-31; 2.87 µM (inactive) with HL-60; 11.4 µM (inactive) with OVCAR-4; 19.9 µM (inactive) with SF-539. Further, the GI50 in the assay with M14 is 9.35 µM (inactive); in the assay on A549, > 55.1 µM (inactive); in the assay with EKVX, 12.2 µM (inactive); with SF-268, 39 µM (inactive); in the assay with MOLT-4, 6.93 µM (inactive); in the assay with CAKI-1 it was 3.03 µM (inactive). The GI50 in the assay with OVCAR-8 was 15.2 µM (inactive); with MCF7, 8.57 µM (inactive); in the assay on HT-29, 22.9 µM (inactive); in the assay with SW-620 it was 4.81 µM (inactive); with SK-MEL-2, 24.3 µM (inactive); in the assay with HOP-92 it was 8.89 µM (inactive). For the same compound, the GI50 in the assay with A498 is 25 µM (inactive).
For the compound `O=C1NC(=O)[C@@]2(CC[C@@H](O)C2)c2ccncc21` [SESBANINE], the GI50 in the assay on SK-OV-3, in the assay with NCI/ADR-RES, in the assay with UO-31, in the assay with HL-60, in the assay with OVCAR-4 and with SF-539 was > 100 µM (inactive) throughout. Also, the GI50 in the assay on M14, in the assay on A549, in the assay with EKVX, in the assay on SF-268, with MOLT-4 and with CAKI-1 was > 100 µM (inactive) throughout. In addition, the GI50 in the assay on OVCAR-8, in the assay on MCF7, in the assay with HT-29, in the assay on SW-620, in the assay on SK-MEL-2 and in the assay on HOP-92 was > 100 µM (inactive) in each case. Also, in the assay on A498, the GI50 is > 100 µM (inactive).
On to `O=C1c2cc3ccccc3cc2C2(c3ccc(Cl)cc3)N[C@H]3CCCC[C@@H]3N12` (some centres undefined), for which the GI50 in the assay with SK-OV-3 was 14.6 µM (inactive); in the assay on NCI/ADR-RES, 14.2 µM (inactive); with UO-31, 18.3 µM (inactive); in the assay with HL-60, 13.6 µM (inactive); in the assay on OVCAR-4 it was 6.34 µM (inactive); in the assay with SF-539, 10.1 µM (inactive). For the same compound, the GI50 with M14 was 2.59 µM (inactive); in the assay on A549, 9.62 µM (inactive); with EKVX it was 10.9 µM (inactive); with SF-268 it was 16.5 µM (inactive); in the assay on MOLT-4 it was 40.4 µM (inactive); in the assay with CAKI-1, 22.6 µM (inactive). Moreover, the GI50 with OVCAR-8 was 5.77 µM (inactive); in the assay on MCF7, 24.7 µM (inactive); in the assay with HT-29 it was 14.4 µM (inactive); in the assay on SW-620, 17.4 µM (inactive); with SK-MEL-2 it was 16.4 µM (inactive); in the assay on HOP-92 it was 27.8 µM (inactive). In the assay on A498, the GI50 is 18.3 µM (inactive).
Regarding `O=[N+]([O-])c1cccc2nc3ccccc3c(NCCCn3ccnc3[N+](=O)[O-])c12`, the GI50 in the assay on SK-OV-3 was 0.0229 µM (active); in the assay on NCI/ADR-RES it was 0.0238 µM (active); in the assay with UO-31 it was 0.00076 µM (active); in the assay on HL-60, 0.000889 µM (active); with OVCAR-4 it was 0.0104 µM (active); in the assay on SF-539 it was 0.00137 µM (active). In addition, the GI50 in the assay on M14 was < 0.0001 µM (active); in the assay with A549 it was 0.000122 µM (active); in the assay on EKVX, 0.000298 µM (active); with SF-268, 0.000819 µM (active); in the assay on MOLT-4 it was 0.000336 µM (active); in the assay on CAKI-1, 0.000385 µM (active). For the same compound, the GI50 in the assay with OVCAR-8 was 0.000111 µM (active); in the assay on MCF7 it was < 0.0001 µM (active); in the assay on HT-29, < 0.0001 µM (active); with SW-620, < 0.0001 µM (active); with SK-MEL-2, 0.000235 µM (active); in the assay with HOP-92 it was 0.000187 µM (active). Moreover, the GI50 in the assay on A498 is 0.000227 µM (active).
On to `C=C1CC(Cn2cc(Br)c(=O)[nH]c2=O)(c2ccc(-c3ccccc3)cc2)OC1=O` (centres undefined), for which the GI50 in the assay with SK-OV-3 is 4.31 µM (inactive); in the assay on NCI/ADR-RES it was 1.41 µM (inactive); with UO-31 it was 2.03 µM (inactive); in the assay with HL-60, 0.0975 µM (active); in the assay on OVCAR-4, 2.13 µM (inactive); with SF-539, 1.37 µM (inactive). For the same compound, the GI50 in the assay on M14 was 1.43 µM (inactive); in the assay with A549 it was 5.31 µM (inactive); with EKVX, 2.16 µM (inactive); in the assay with SF-268 it was 2.02 µM (inactive); in the assay with MOLT-4, 0.552 µM (active); in the assay with CAKI-1, 1.13 µM (inactive). The GI50 in the assay with OVCAR-8 was 0.466 µM (active); in the assay on MCF7 it was 0.427 µM (active); in the assay on HT-29, 0.469 µM (active); with SW-620, 0.341 µM (active); in the assay on SK-MEL-2, 1.49 µM (inactive); in the assay with HOP-92, 0.0308 µM (active). The GI50 in the assay on A498 was 0.776 µM (active).
In the case of `NCC1OC(n2cnc3c(=O)[nH]c(N)nc32)C(O)C1O` (centres undefined), the GI50 with SK-OV-3, in the assay on NCI/ADR-RES, in the assay on UO-31, in the assay with HL-60, in the assay on OVCAR-4 and in the assay on SF-539 was > 100 µM (inactive) throughout. Further, the GI50 in the assay on M14, in the assay on A549, in the assay on EKVX, in the assay with SF-268, in the assay with MOLT-4 and in the assay with CAKI-1 was > 100 µM (inactive) each time. In addition, the GI50 in the assay with OVCAR-8 is > 100 µM (inactive); with MCF7, 95.5 µM (inactive); in the assay on HT-29, > 100 µM (inactive); in the assay on SW-620, > 100 µM (inactive); in the assay with SK-MEL-2 it was > 100 µM (inactive); in the assay with HOP-92 it was > 100 µM (inactive). For the same compound, the GI50 in the assay with A498 was > 100 µM (inactive).
As to `COC(=O)C(CC(C)C)NC(=O)C(Cc1ccccc1)NC(=O)C1CCCN1C(=O)C(CO)NC(=O)c1ccc(-c2ccc(Cl)cc2Cl)o1` (centres undefined) (X38-SPFL-OMe; configuration not given here), the GI50 with SK-OV-3 is 1.11 µM (active); with NCI/ADR-RES, 28.8 µM (inactive); with UO-31 it was 23.9 µM (inactive); in the assay with HL-60, 19.5 µM (inactive); with OVCAR-4, 31.2 µM (inactive); in the assay on SF-539 it was 24.3 µM (inactive). Also, the GI50 was 19.9 µM (inactive) with M14; 26.1 µM (inactive) in the assay with A549; 40.3 µM (inactive) in the assay on SF-268; 22.2 µM (inactive) in the assay with MOLT-4; 28.3 µM (inactive) with CAKI-1; 36.4 µM (inactive) in the assay with OVCAR-8. The GI50 with MCF7 was 27.5 µM (inactive); in the assay on HT-29, 17.6 µM (inactive); in the assay on SW-620, 30.7 µM (inactive); in the assay on SK-MEL-2, 16.9 µM (inactive); with HOP-92, 21.2 µM (inactive); in the assay on A498, 24.5 µM (inactive).
